Measured values as given in ChEMBL document CHEMBL3045949, “Antifeedant and toxic effects of naturally occurring and synthetic quinones to the cabbage looper, Trichoplusia ni” (Crop Prot, 2012).

How the values were obtained:
Trichoplusia ni [1] = experiment: Antifeedant activity against Trichoplusia ni (cabbage looper) third-instar larvae stage assessed as feeding deterrence index at 50 microg/cm'2 by feeding deterrent bioassay; format: functional
Trichoplusia ni [2] = experiment: Toxicity against Trichoplusia ni (cabbage looper) third-instar larvae stage assessed as mortality at 10 ug/ml for 24 hr by topical application; format: functional
Trichoplusia ni [3] = experiment: Antifeedant activity against Trichoplusia ni (cabbage looper) third-instar larvae stage assessed as concentrations causing 50% feeding deterrence by feeding deterrent bioassay; format: functional, organism-based
Trichoplusia ni [4] = experiment: Protection of intact cabbage plants from Trichoplusia ni (cabbage looper) measured as leaf area consumed by lopper in green house for 10 days (reference value: 8.5 cm'2); format: functional
Trichoplusia ni [5] = experiment: Protection of intact cabbage plants from Trichoplusia ni (cabbage looper) measured as reduction in weight of larvae by lopper in green house for 10 days (reference value: 33.8 mg); format: functional

`CC(C)=CCC1=C(O)C(=O)c2ccccc2C1=O` [LAPACHOL] was tested, and the FDI (Trichoplusia ni [1]) was 9.1% and the mortality at 10 µg/mL (Trichoplusia ni [2]) was 10%.
With `O=C1C(Cl)=C(Cl)C(=O)c2ccccc21` [Dichlon] the FDI (Trichoplusia ni [1]) was 39.8% and the mortality at 10 µg/mL (Trichoplusia ni [2]) was 8%.
With `CC1=CC(=O)c2ccccc2C1=O` [MENADIONE] the DC50 (Trichoplusia ni [3]) was 6.3 microg/cm2, the FDI (Trichoplusia ni [1]) was 100% and the mortality at 10 µg/mL (Trichoplusia ni [2]) was 13%.
`c1ccc2c(c1)ccc1cccnc12` [1-NAPHTHOQUINOLINE] showed a DC50 (Trichoplusia ni [3]) of 16.4 microg/cm2, an FDI (Trichoplusia ni [1]) of 75.7% and a mortality at 10 µg/mL (Trichoplusia ni [2]) of 10%.
With `O=C1C=Cc2ccccc2C1=O` [1,2-NAPHTHOQUINONE] the DC50 (Trichoplusia ni [3]) was 1.8 microg/cm2, the FDI (Trichoplusia ni [1]) was 100% and the mortality at 10 µg/mL (Trichoplusia ni [2]) was 3.3%.
For `O=C1C=CC(=O)C=C1` [BENZOQUINONE], the FDI (Trichoplusia ni [1]) was 17.8%.
Molecule `COC1=CC(=O)c2ccccc2C1=O` [2-Methoxy-1,4-naphthoquinone] has a DC50 (Trichoplusia ni [3]) of 2.6 microg/cm2, an FDI (Trichoplusia ni [1]) of 96.8% and a mortality at 10 µg/mL (Trichoplusia ni [2]) of 8%.
`O=C1C(Cl)=C(N2CCOCC2)C(=O)c2ccccc21` [2-Chloro-3-morpholino-1,4-naphthoquinone] showed a DC50 (Trichoplusia ni [3]) of 9.7 microg/cm2, an FDI (Trichoplusia ni [1]) of 100% and a mortality at 10 µg/mL (Trichoplusia ni [2]) of 12%.
`O=C1C(Br)=C(Br)C(=O)c2ccccc21` [2,3-Dibromo-1,4-naphthoquinone] showed a DC50 (Trichoplusia ni [3]) of 26.4 microg/cm2, an FDI (Trichoplusia ni [1]) of 100% and a mortality at 10 µg/mL (Trichoplusia ni [2]) of 10%.
`COC1=C(OC)C(=O)C(C)=CC1=O` [Ubiquinone Qo] showed a DC50 (Trichoplusia ni [3]) of 4.2 microg/cm2, an FDI (Trichoplusia ni [1]) of 86.7% and a mortality at 10 µg/mL (Trichoplusia ni [2]) of 23.3%.
`O=C1C=CC(=O)c2c(O)ccc(O)c21` [NAPHTHAZALIN] was tested, and the DC50 (Trichoplusia ni [3]) was 10.1 microg/cm2, the FDI (Trichoplusia ni [1]) was 100% and the mortality at 10 µg/mL (Trichoplusia ni [2]) was 20%.
`O=C1c2cccc(O)c2C(=O)c2cccc(O)c21` [ANTHRARUFIN] showed an FDI (Trichoplusia ni [1]) of -58.6% and a mortality at 10 µg/mL (Trichoplusia ni [2]) of 15%.
Work on `Cc1cc(O)c2c(c1)C(=O)c1cc(O)cc(O)c1C2=O` [EMODIN] yielded an FDI (Trichoplusia ni [1]) of 22.1% and a mortality at 10 µg/mL (Trichoplusia ni [2]) of 10%.
`O=C1C=C(Br)C(=O)c2ccccc21` [2-Bromo-1,4-naphthoquinone] showed a DC50 (Trichoplusia ni [3]) of 8.4 microg/cm2, an FDI (Trichoplusia ni [1]) of 80.7% and a mortality at 10 µg/mL (Trichoplusia ni [2]) of 15%.
Molecule `O=C1c2cccc(O)c2C(=O)c2c(O)cccc21` [DANTHRON] has a DC50 (Trichoplusia ni [3]) of 9.2 microg/cm2, an FDI (Trichoplusia ni [1]) of 86.2% and a mortality at 10 µg/mL (Trichoplusia ni [2]) of 12%.
Work on `O=C1C=CC(=O)c2c(O)cccc21` [JUGLONE] yielded a DC50 (Trichoplusia ni [3]) of 2.1 microg/cm2, an Activity (Trichoplusia ni [4]) of 1.7 cm2 and an Activity (Trichoplusia ni [5]) of 8.1 mg. The FDI (Trichoplusia ni [1]) was 100% and the mortality at 10 µg/mL (Trichoplusia ni [2]) was 5%.
`O=C1C(Cl)=C(Cl)C(=O)C(Cl)=C1Cl` [CHLORANIL] was tested, and the FDI (Trichoplusia ni [1]) was 35.8% and the mortality at 10 µg/mL (Trichoplusia ni [2]) was 10%.
`CC1=C(Br)C(=O)C(C(C)C)=C(Br)C1=O` [Dibromothymoquinone] showed an FDI (Trichoplusia ni [1]) of 42.2% and a mortality at 10 µg/mL (Trichoplusia ni [2]) of 5%.
Molecule `O=C1c2ccccc2C(=O)c2c(O)cccc21` [1-HYDROXYANTHRAQUINONE] has an FDI (Trichoplusia ni [1]) of -41.5% and a mortality at 10 µg/mL (Trichoplusia ni [2]) of 10%.
`O=C1C(=O)c2ccccc2-c2ccccc21` [9,10-PHENANTHRENEQUINONE] gave an FDI (Trichoplusia ni [1]) of -15.4% and a mortality at 10 µg/mL (Trichoplusia ni [2]) of 10%.
Work on `CC1=CC(=O)C(C(C)C)=CC1=O` [THYMOQUINONE] yielded a DC50 (Trichoplusia ni [3]) of 19.3 microg/cm2, an FDI (Trichoplusia ni [1]) of 100% and a mortality at 10 µg/mL (Trichoplusia ni [2]) of 26.7%.
With `CC1=CC(=O)c2c(O)cccc2C1=O` [PLUMBAGIN] the DC50 (Trichoplusia ni [3]) was 3.3 microg/cm2, the Activity (Trichoplusia ni [4]) was 3.5 cm2 and the Activity (Trichoplusia ni [5]) was 12.7 mg. For the same molecule, the FDI (Trichoplusia ni [1]) was 100% and the mortality at 10 µg/mL (Trichoplusia ni [2]) was 7%.
